Data from patent publication US20220135663A1, “Method of treatment of Chronic Low Back Pain” (Pfizer Inc., priority 2019, published 2022).

Key:
[1] = test system: adult patients with chronic low back pain; assay: Study 1059, Phase 3: efficacy (LBPI, RMDQ) in chronic low back pain; type: in vivo, human; settings: 100-300 mg daily oral
Protocol: The Low Back Pain Intensity (LBPI) measure is assessed with an 11-point numeric rating scale ranging from 0 (no pain) to 10 (worst possible pain). The LBPI score can be the daily average LBPI score.
The Roland Morris Disability Questionnaire (RMDQ) is an index of how well subjects with low back pain are able to function with regard to daily activities (Roland M, Fairbank. The Roland-Morris Questionnaire and the Oswestry Disability Questionnaire. Spine. 2000; 25 (4)3115-3124). It is a low back pain-specific assessment of physical function with scores ranging from 0 to 24 (lower scores indicate better function).
(§1) Patients were also required to have documented history of previous inadequate treatment response to at least 3 different categories of agents commonly used and generally considered effective for the treatment of chronic low back pain. Patients were required to discontinue all medications for the treatment of chronic low back pain during the primary efficacy assessment period (up to Week 16).
Approximately 1800 patients were planned to be randomized initially in a 2:2:2:3 ratio to 1 of 4 following treatment groups:
1. Placebo administered SC at an 8-week interval plus placebo matching tramadol PR up to Week 16. At the Week 16 visit, patients in this group were switched in a blinded fashion in a 1:1 ratio to either tanezumab 5 mg or tanezumab 10 mg administered SC at an 8 week interval plus placebo matching tramadol PR to Week 56;
2. Tanezumab 5 mg SC administered at an 8-week interval plus placebo matching tramadol PR to Week 56;
3. Tanezumab 10 mg SC administered at an 8-week interval plus placebo matching tramadol PR to Week 56;
4. Oral tramadol PR 100-300 mg daily plus placebo administered SC at an 8-week interval to Week 56.
To achieve the initial randomization and intended re-randomization at Week 16 for placebo patients, a randomization ratio 1:1:2:2:3 for placebo→tanezumab 5 mg (at Week 16), placebo→tanezumab 10 mg (at Week 16), tanezumab 5 mg, tanezumab 10 mg, and tramadol PR was used at the beginning of the trial.
Table 2 summarizes the requirements for analgesic medication usage prior to Screening and the requirements for LBPI and Patient's Global Assessment (PGA) of CLBP. The current study enrolled patients who were more refractory to standard of care treatments for CLBP and had higher LBPI scores at Baseline.

[2] = test system: adult patients with chronic low back pain; assay: Study 1059: adverse events and adjudicated joint safety; type: in vivo, human
Description: For subjects who are identified with a possible or probable joint event (i.e., rapidly progressive osteoarthritis, subchondral insufficiency fractures, spontaneous osteonecrosis of the knee (SPONK), primary osteonecrosis or pathological fracture) and subjects undergoing total joint replacement for any reason, all images and other source documentation may be provided to the blinded Adjudication Committee for review and adjudication of the event. The Adjudication Committee's assessment of the event may represent the final classification of the event.
as §1

[3] = test system: subjects with chronic low back pain (CLBP); assay: Study 1063, Phase 3 in Japan: efficacy (LBPI, RMDQ) in chronic low back pain; type: in vivo, human; settings: 100 mg BID
Protocol: Patients received a total of seven SC injections, separated by 8 weeks (tanezumab or
Treatment groups were as follows: 1. […] Placebo for tanezumab SC and celecoxib BID.
The Intent-to-Treat (ITT) analysis set included all patients who were randomized and received at least one dose of SC study medication (either tanezumab or placebo). This analysis set was primary for all efficacy endpoints, which were analyzed according to randomization assignment, and was labeled as the ‘ITT population’.

[4] = test system: subjects with chronic low back pain (CLBP); assay: Study 1063: adverse events and adjudicated joint safety
Protocol: This second study (termed “Study 1063) was a randomized, double-blind, active-controlled, multicenter, parallel-group Phase 3 study in Japan to evaluate the safety and efficacy of tanezumab when administered by SC injection for up to 56 weeks in subjects with chronic low back pain (CLBP). […] Patients were also required to be experiencing some benefit from their current stable dose regimen of oral therapy of NSAID (celecoxib 200 mg/day [100 mg BID], loxoprofen 120 to 180 mg/day or meloxicam 5 to 15 mg/day) treatment, but still required additional pain relief at screening. […] Patients with a diagnosis of osteoarthritis of the knee or hip as defined by the American College of Rheumatology combined clinical and radiographic criteria or who had Kellgren Lawrence Grade ≥2 radiographic evidence of hip osteoarthritis or Kellgren Lawrence Grade ≤3 radiographic evidence of knee osteoarthritis were excluded.
Treatment groups were as follows: 1. Tanezumab 5 mg SC and placebo for celecoxib BID; 2. Tanezumab 10 mg SC and placebo for celecoxib BID; 3. Placebo for tanezumab SC and celecoxib BID.
This study was designed with a total (post-randomization) duration of 80 weeks and consisted of three periods: (1) a Screening period (up to a maximum of 37 days), (2) a Double-blind Treatment period (56 weeks), and (3) a Safety Follow-up (24 weeks) Period (FIG. 8). The Screening Period included a Washout Period (lasting 2-32 days) if required, and an Initial Pain Assessment Period (IPAP) (5 days prior to Randomization/Baseline; minimum 4 days).
The Safety analysis set included all patients who received at least one dose of SC study treatment. This analysis set was primary for all safety endpoints, which were analyzed according to treatment received, and was labeled as the ‘Safety population’. In this study, the ITT and Safety analysis sets were identical.

low back pain = settings: 500 mg BID; prior study; cited from earlier work
[5] = 100 mg BID, 56-week treatment period

Structure (SMILES): COc1cccc(C2(O)CCCCC2CN(C)C)c1 (stereo not drawn) [Tramadol PR, tramadol, reference compound]
- LBPI change from Baseline to Week 2, Difference vs. plc [1]: −0.19
- LBPI change from Baseline to Week 16, LS Mean [1]: −2.81
- Proportion of patients with ≥50% improvement in LBPI at Week 16 [1]: (42.8) %
- RMDQ change from Baseline to Week 16, Difference vs. plc [1]: −0.26
- RMDQ change from Baseline to Week 16, LS Mean [1]: −5.21
- percentage of patients achieving ≥30% improvement in LBPI at week 16 [1]: 57.9%
- ≥30% improvement in LBPI at week 16, odds ratio versus placebo [1]: 1.08
- ≥50% improvement in LBPI at Week 16, OR vs. plc [1]: 1.25
- incidence of composite joint safety endpoint ([2]; 100-300 mg daily oral): 0.2%
- observation-time adjusted rate of composite joint safety endpoint ([2]; 100-300 mg daily oral): 1.9 events/1000 patient-years
- patients with joint safety event adjudicated to RPOA Type 1 ([2]; 100-300 mg daily oral): 0.2%
- patients with joint safety event adjudicated to RPOA Type 1, number ([2]; 100-300 mg daily oral): 1 patients
- patients with adjudicated event of RPOA ([2]; tramadol PR-treated patients): 0.2%
- patients with joint safety event requiring adjudication ([2]; tramadol PR-treated patients, 80-week observation period): 0.7%

Structure (SMILES): Cc1ccc(-c2cc(C(F)(F)F)nn2-c2ccc(S(N)(=O)=O)cc2)cc1 [celecoxib]
- Proportion of Patients with ≥50% Improvement in LBPI at Week 16 (Mixed BOCF/LOCF) [3]: (32.6%)
- Change from Baseline to Week 16 in LBPI (Multiple Imputation), LS Mean ([3]; ITT): −2.28
- Change from Baseline to Week 16 in RMDQ (Multiple Imputation), LS Mean ([3]; ITT): −3.84
- frequency of adverse events of potential sympathetic dysfunction ([4]; 100 mg BID): 7.6%
- incidence of composite joint safety endpoint ([4]; 100 mg BID): 0%
- observation-time adjusted rate of composite joint safety endpoint ([4]; 100 mg BID): 0 event/1000 patient-years
- patients who met criteria for adjudication of a joint safety event, number ([4]; 100 mg BID): 1 patient
- incidence of serious adverse events [4, 5]: 2.2%
- overall incidence of adverse events [4, 5]: 67.4%
- Composite Joint Safety Endpoint, n (%) ([4]; 100 mg BID, during the study): 0 n (%)
- Pathological Fracture, n (%) ([4]; 100 mg BID, during the study): 0 n (%)
- Patients analyzed by the Adjudication Committee, n (%) ([4]; 100 mg BID, during the study): 1 (1.1%) n (%)
- Patients with Only Normal Progression of OA, n (%) ([4]; 100 mg BID, during the study): 0 n (%)
- Patients with Other Joint Outcome, n (%) ([4]; 100 mg BID, during the study): 1 (1.1%) n (%)
- Primary Osteonecrosis, n (%) ([4]; 100 mg BID, during the study): 0 n (%)
- RPOA type 1, n (%) ([4]; 100 mg BID, during the study): 0 n (%)
- RPOA type 2, n (%) ([4]; 100 mg BID, during the study): 0 n (%)
- RPOA, n (%) ([4]; 100 mg BID, during the study): 0 n (%)
- Subchondral Insufficiency Fracture, n (%) ([4]; 100 mg BID, during the study): 0 n (%)
- Arthralgia, number (%) of patients ([4]; 100 mg BID, treatment period): 6 (6.5) n (%)
- Back pain, number (%) of patients ([4]; 100 mg BID, treatment period): 4 (4.3) n (%)
- Contusion, number (%) of patients ([4]; 100 mg BID, treatment period): 2 (2.2) n (%)
- Diarrhoea, number (%) of patients ([4]; 100 mg BID, treatment period): 3 (3.3) n (%)
- Discontinued from study due to Adverse Event, number (%) of patients ([4]; 100 mg BID, treatment period): 0 n (%)
- Discontinued study drug due to Adverse Event and continued study, number (%) of patients ([4]; 100 mg BID, treatment period): 4 (4.3) n (%)
- Discontinued study drug due to Adverse Event, number (%) of patients ([4]; 100 mg BID, treatment period): 4 (4.3) n (%)
- Fall, number (%) of patients ([4]; 100 mg BID, treatment period): 3 (3.3) n (%)
- Gastroenteritis, number (%) of patients ([4]; 100 mg BID, treatment period): 3 (3.3) n (%)
- Headache, number (%) of patients ([4]; 100 mg BID, treatment period): 2 (2.2) n (%)
- Hypertension, number (%) of patients ([4]; 100 mg BID, treatment period): 3 (3.3) n (%)
- Hypoaesthesia, number (%) of patients ([4]; 100 mg BID, treatment period): 3 (3.3) n (%)
- Intervertebral disc protrusion, number (%) of patients ([4]; 100 mg BID, treatment period): 3 (3.3) n (%)
- Musculoskeletal pain, number (%) of patients ([4]; 100 mg BID, treatment period): 3 (3.3) n (%)
- Myalgia, number (%) of patients ([4]; 100 mg BID, treatment period): 1 (1.1) n (%)
- Nasopharyngitis, number (%) of patients ([4]; 100 mg BID, treatment period): 6 (6.5) n (%)
- Pain in extremity, number (%) of patients ([4]; 100 mg BID, treatment period): 3 (3.3) n (%)
- Pneumonia, number (%) of patients ([4]; 100 mg BID, treatment period): 1 (1.1) n (%)
- Pyrexia, number (%) of patients ([4]; 100 mg BID, treatment period): 4 (4.3) n (%)
- Serious Adverse Event, number (%) of patients ([4]; 100 mg BID, treatment period): 2 (2.2) n (%)
- Severe Adverse Event, number (%) of patients ([4]; 100 mg BID, treatment period): 1 (1.1) n (%)
- frequency of adverse events of abnormal peripheral sensation ([4]; 100 mg BID, treatment period): 4.3%
- incidence of discontinuations from treatment due to an adverse event ([4]; 100 mg BID, treatment period): 4.3%
- Adverse Event, number (%) of patients ([4]; 100 mg BID, treatment period, all causalities): 62 (67.4) n (%)
- patients who met criteria for adjudication of joint safety outcome ([4]; celecoxib-treated patients, 80-week observation period): 1.1%

Structure (SMILES): COc1ccc2cc([C@H](C)C(=O)O)ccc2c1 [naproxen]
- LBPI endpoints relative to placebo (low back pain): significant differences relative to placebo
- RMDQ endpoint relative to placebo (low back pain): not the RMDQ endpoint
